Measurements as given in PubChem BioAssay AID1259411 (Chemical Carcinogenesis Research Information System (CCRIS), 2018).
Active and inactive are the calls of the source. How the calls were made is not given here.

Tested on: rodent carcinogenicity bioassays, tumor incidence
Assay: CCRIS carcinogenicity studies
Outline: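 Archive of carcinogenicity, mutagenicity, tumor promotion and tumor inhibition results drawn from journals, NCI reports and other sources, expert-reviewed; covers 1985-2011 and is no longer updated.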

c1ccc(NNc2ccccc2)cc1
carcinogen call (Species: MOUSE, Strain/Sex: B6C3F1/FEMALE, Route: ORAL, Dose: 0, 0.004, 0.04% TWA, IN DIET FOR 78 WK (STUDY DURATION: 95-96 WK), Dose: 0, 0.004, 0.04% TWA, IN DIET FOR 78 WK (STUDY DURATION: 95-96 WK), Tumor Site: Type of Lesion: LIVER: HEPATOCELLULAR ADENOMA OR CARCINOMA): active; positive | carcinogen call (Species: MOUSE, Strain/Sex: B6C3F1/MALE, Route: ORAL, Dose: 0, 0.008, 0.04% TWA, IN DIET FOR 78 WK (STUDY DURATION: 85 WK), Dose: 0, 0.008, 0.04% TWA, IN DIET FOR 78 WK (STUDY DURATION: 85 WK)): inactive; negative | carcinogen call (Species: RAT, Strain/Sex: F344/FEMALE, Route: ORAL, Dose: 0, 0.004, 0.01% TWA, IN DIET FOR 78 WK (STUDY DURATION: 107-108 WK), Dose: 0, 0.004, 0.01% TWA, IN DIET FOR 78 WK (STUDY DURATION: 107-108 WK), Tumor Site: Type of Lesion: LIVER: NEOPLASTIC NODULE): active; positive | carcinogen call (Species: RAT, Strain/Sex: F344/MALE, Route: ORAL, Dose: 0, 0.008, 0.03% TWA, IN DIET FOR 78 WK (STUDY DURATION: 106-107 WK), Dose: 0, 0.008, 0.03% TWA, IN DIET FOR 78 WK (STUDY DURATION: 106-107 WK), Tumor Site: Type of Lesion: LIVER: NEOPLASTIC NODULE OR HEPATOCELLULAR CARCINOMA, ADRENAL GLAND: PHEOCHROMOCYTOMA OR MALIGNANT PHEOCHROMOCYTOMA, EAR, Tumor Site: Type of Lesion: LIVER: NEOPLASTIC NODULE OR HEPATOCELLULAR CARCINOMA, ADRENAL GLAND: PHEOCHROMOCYTOMA OR MALIGNANT PHEOCHROMOCYTOMA, EAR): active; positive

O=NN(CCCC(F)(F)F)CCCC(F)(F)F
carcinogen call (Species: RAT, Strain/Sex: SPRAGUE-DAWLEY/MALE,FEMALE, Route: GAVAGE, Dose: 1.5, 7.5% IN VEGETABLE OIL 2/WK FOR UP TO 32 WK, Tumor Site: Type of Lesion: LIVER: HEPATOCELLULAR CARCINOMA, LUNG: SQUAMOUS CELL CARCINOMA, ADENOCARCINOMA): active; positive

O=S(=O)([O-])[O-].[Cd+2]
carcinogen call (Species: HAMSTER, Strain/Sex: SYRIAN/FEMALE, Route: INHALATION, Dose: 0, 30 UG/M3 19 HR/D 5 D/WK FOR 65 WK FOR A TOTAL CADMIUM DOSE OF 0, 180 MG/M3 (STUDY DURATION: 77 WK), Dose: 0, 30 UG/M3 19 HR/D 5 D/WK FOR 65 WK FOR A TOTAL CADMIUM DOSE OF 0, 180 MG/M3 (STUDY DURATION: 77 WK)): inactive; negative | carcinogen call (Species: HAMSTER, Strain/Sex: SYRIAN/MALE, Route: INHALATION, Dose: 0, 30 UG/M3 19 HR/D 5 D/WK FOR 65 WK FOR A TOTAL CADMIUM DOSE OF 0, 180 MG/M3 (STUDY DURATION: 113 WK), Dose: 0, 30 UG/M3 19 HR/D 5 D/WK FOR 65 WK FOR A TOTAL CADMIUM DOSE OF 0, 180 MG/M3 (STUDY DURATION: 113 WK)): inactive; negative | carcinogen call (Species: RAT, Strain/Sex: ALBINO/MALE, Route: SUBCUTANEOUS, Dose: 0.5 MG IN WATER 1/WK FOR 10 WK, Tumor Site: Type of Lesion: INJECTION SITE: SARCOMA, TESTES: INTERSTITIAL CELL TUMOR): active; positive | carcinogen call (Species: RAT, Strain/Sex: CB/MALE, Route: SUBCUTANEOUS, Dose: 0.5 MG, 1/WK FOR 10 WK, Tumor Site: Type of Lesion: INJECTION SITE: SARCOMA, TESTES: INTERSTITIAL CELL TUMOR): active; positive | carcinogen call (Species: RAT, Strain/Sex: WISTAR/FEMALE, Route: INHALATION, Dose: 0, 90 UG/M3 22 HR/D 7 D WK FOR 18 MO (STUDY DURATION: 18 MO), Tumor Site: Type of Lesion: LUNG: ALVEOLAR/BRONCHIOLAR ADENOMA, ALVEOLAR/BRONCHIOLAR ADENOCARCINOMA, SQUAMOUS CELL CARCINOMA): active; positive | carcinogen call (Species: RAT, Strain/Sex: WISTAR/FEMALE, Route: INHALATION, Dose: 0, 90 UG/M3 22 HR/D 7 D/WK FOR 18 MO (STUDY DURATION: 29 MO), Tumor Site: Type of Lesion: LUNG: ALVEOLAR/BRONCHIOLAR ADENOMA, ADENOCARCINOMA, SQUAMOUS CELL CARCINOMA): active; positive | carcinogen call (Species: RAT, Strain/Sex: WISTAR/FEMALE, Route: INHALATION, Dose: 0, 90 UG/M3 22 HR/D 7 D/WK FOR 18 MO (STUDY DURATION: 29 MO), Tumor Site: Type of Lesion: LUNG: TUMOR): active; positive | carcinogen call (Species: RAT, Strain/Sex: WISTAR/FEMALE, Route: INHALATION, Dose: 0, 90 UG/M3 AEROSOL 22 HR/D 7 D/WK FOR 18 MO (STUDY DURATION: 29 MO), Tumor Site: Type of Lesion: LUNG: ALVEOLAR/BRONCHIOLAR ADENOMA, ADENOCARCINOMA, SQUAMOUS CELL CARCINOMA): active; positive | carcinogen call (Species: RAT, Strain/Sex: WISTAR/MALE, Route: INHALATION, Dose: 0, 90 UG/M3 22 HR/D 7 D/WK FOR 14 MO (STUDY DURATION: 31 MO), Tumor Site: Type of Lesion: LUNG: ALVEOLAR/BRONCHIOLAR ADENOMA, ADENOCARCINOMA): active; positive | carcinogen call (Species: RAT, Strain/Sex: WISTAR/MALE, Route: INHALATION, Dose: 0, 90 UG/M3 22 HR/D 7 D/WK FOR 14 MO (STUDY DURATION: 31 MO), Tumor Site: Type of Lesion: LUNG: TUMOR): active; positive | carcinogen call (Species: RAT, Strain/Sex: WISTAR/MALE, Route: INHALATION, Dose: 0, 90 UG/M3 22 HR/D 7 D/WK FOR 135 MO (STUDY DURATION: 13.5 MO), Tumor Site: Type of Lesion: LUNG: ALVEOLAR/BRONCHIOLAR ADENOMA, ALVEOLAR/BRONCHIOLAR ADENOCARCINOMA, SQUAMOUS CELL CARCINOMA): active; positive | carcinogen call (Species: RAT, Strain/Sex: WISTAR/MALE, Route: INHALATION, Dose: 0, 90 UG/M3 AEROSOL 22 HR/D 7 D/WK FOR 14 MO (STUDY DURATION: 31 MO), Tumor Site: Type of Lesion: LUNG: ALVEOLAR/BRONCHIOLAR ADENOMA, ADENOCARCINOMA): active; positive

C[C@]12CC[C@H](O)CC1=CC[C@@H]1[C@@H]2CC[C@]2(C)C(=O)CC[C@@H]12
carcinogen call (Species: FISH, Strain/Sex: RAINBOW TROUT/MALE, FEMALE, Route: ORAL, Dose: 0, 55, 111, 222, 444, 888 PPM IN DIET 1/D 5 D/WK FOR 42 WK (STUDY DURATION: 42 WK), Dose: 0, 55, 111, 222, 444, 888 PPM IN DIET 1/D 5 D/WK FOR 42 WK (STUDY DURATION: 42 WK), Tumor Site: Type of Lesion: LIVER: TUMOR): active; positive | carcinogen call (Species: FISH, Strain/Sex: RAINBOW TROUT/MALE,FEMALE, Route: ORAL, Dose: 0, 55, 111, 222, 444, 888 PPM IN DIET FOR 7 MO (STUDY DURATION: 10 MO), Dose: 0, 55, 111, 222, 444, 888 PPM IN DIET FOR 7 MO (STUDY DURATION: 10 MO), Tumor Site: Type of Lesion: LIVER: TUMOR): active; positive | carcinogen call (Species: RAT, Strain/Sex: F344/MALE, Route: ORAL, Dose: 0, 0.45% (WEIGHT/WEIGHT) IN SEMIPURIFIED DIET OIL STRIPPED OF VITAMIN E FOR STUDY DURATION, (STUDY DURATION: 84 WK), Dose: 0, 0.45% (WEIGHT/WEIGHT) IN SEMIPURIFIED DIET OIL STRIPPED OF VITAMIN E FOR STUDY DURATION, (STUDY DURATION: 84 WK), Tumor Site: Type of Lesion: LIVER: HEPATOCELLULAR CARCINOMA): active; positive | carcinogen call (Species: RAT, Strain/Sex: F344/MALE, Route: ORAL, Dose: 0, 0.5, 1% IN DIET FOR 78 WK (STUDY DURATION: 78 WK), Dose: 0, 0.5, 1% IN DIET FOR 78 WK (STUDY DURATION: 78 WK), Tumor Site: Type of Lesion: LIVER: NEOPLASM): active; positive

CC(CN1CC(=O)NC(=O)C1)N1CC(=O)NC(=O)C1 (configuration not stated)
carcinogen call (Species: MOUSE, Strain/Sex: B6C3F1/FEMALE, Route: INTRAPERITONEAL, Dose: 0, 40, 80 MG/KG IN BUFFERED SALINE 3/WK FOR 52 WK, Dose: 0, 40, 80 MG/KG IN BUFFERED SALINE 3/WK FOR 52 WK, Tumor Site: Type of Lesion: LYMPHATIC SYSTEM: HISTIOCYTIC LYMPHOMA): active; positive | carcinogen call (Species: MOUSE, Strain/Sex: B6C3F1/MALE, Route: INTRAPERITONEAL, Dose: 0, 40, 80 MG/KG IN BUFFERED SALINE 3/WK FOR 52 WK, Dose: 0, 40, 80 MG/KG IN BUFFERED SALINE 3/WK FOR 52 WK): inactive; negative | carcinogen call (Species: RAT, Strain/Sex: SPRAGUE-DAWLEY/FEMALE, Route: INTRAPERITONEAL, Dose: 0, 48, 96 MG/KG IN BUFFERED SALINE 3/WK FOR 52 WK, Dose: 0, 48, 96 MG/KG IN BUFFERED SALINE 3/WK FOR 52 WK, Tumor Site: Type of Lesion: UTERUS: ADENOCARCINOMA (NOS)): active; positive | carcinogen call (Species: RAT, Strain/Sex: SPRAGUE-DAWLEY/MALE, Route: INTRAPERITONEAL, Dose: 0, 48, 96 MG/KG IN BUFFERED SALINE 3/WK FOR 52 WK, Dose: 0, 48, 96 MG/KG IN BUFFERED SALINE 3/WK FOR 52 WK): inactive; negative

CC(C)(C)c1cc([N+](=O)[O-])cc([N+](=O)[O-])c1OS(C)(=O)=O
carcinogen call (Species: RAT, Strain/Sex: SPRAGUE-DAWLEY/FEMALE, Route: ORAL, Dose: 0, 25, 100, 400 PPM IN DIET FOR 1 YR (STUDY DURATION: 1 YR), Dose: 0, 25, 100, 400 PPM IN DIET FOR 1 YR (STUDY DURATION: 1 YR)): inactive; negative | carcinogen call (Species: RAT, Strain/Sex: SPRAGUE-DAWLEY/MALE, Route: ORAL, Dose: 0, 25, 100, 400 PPM IN DIET FOR 1 YR (STUDY DURATION: 1 YR), Dose: 0, 25, 100, 400 PPM IN DIET FOR 1 YR (STUDY DURATION: 1 YR)): inactive; negative
